“And” between values parts separate entries of the source, which are not always exact repeats. Equal values may be shown once. Toxic doses and inconclusive results are not listed. Rule as the data show it: active = T/C of 150% or more; inactive = T/C below 125%.
Tested on: L1210 leukemia ip in BDF1 mice, survival T/C
Assay: NCI In Vivo Anticancer Drug Screen. Data for tumor model L1210 Leukemia (intraperitoneal) in B6D2F1 (BDF1) mice
Conditions: endpoint: mean survival time, higher = longer survival
Method in brief: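 Value reflects the ratio of survival in compound-treated mice to survival in vehicle-treated controls, with both groups carrying the same transplanted tumor.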

[1] = dose: 100.0 mg/kg/injection, schedule: Q01DX009 (ip), vehicle: saline
[2] = dose: 200.0 mg/kg/injection, schedule: Q01DX009 (ip), vehicle: saline
[3] = dose: 50.0 mg/kg/injection, schedule: Q01DX009 (ip), vehicle: saline with Tween-80
[4] = dose: 100.0 mg/kg/injection, schedule: Q01DX009 (ip), vehicle: saline with Tween-80
[5] = dose: 200.0 mg/kg/injection, schedule: Q01DX009 (ip), vehicle: saline with Tween-80
[6] = dose: 100.0 mg/kg/injection, schedule: Q04DX003 (ip), vehicle: saline with Tween-80
[7] = dose: 200.0 mg/kg/injection, schedule: Q04DX003 (ip), vehicle: saline with Tween-80
[8] = dose: 400.0 mg/kg/injection, schedule: Q04DX003 (ip), vehicle: saline with Tween-80
[9] = dose: 25.0 mg/kg/injection, schedule: Q04DX003 (ip), vehicle: saline with Tween-80
[10] = dose: 50.0 mg/kg/injection, schedule: Q04DX003 (ip), vehicle: saline with Tween-80
[11] = dose: 100.0 mg/kg/injection, schedule: Q04DX003 (ip), vehicle: saline
[12] = dose: 200.0 mg/kg/injection, schedule: Q04DX003 (ip), vehicle: saline
[13] = dose: 400.0 mg/kg/injection, schedule: Q04DX003 (ip), vehicle: saline

Measured: T/C

O=C(/C=C/c1ccc2c(c1)OCO2)/C=C/c1ccc2c(c1)OCO2
inactive: dose: 25.0 mg/kg/injection, schedule: Q01DX009 (ip), vehicle: saline 89 % of control | dose: 50.0 mg/kg/injection, schedule: Q01DX009 (ip), vehicle: saline 88 % of control | [1] 91 % of control | [2] 88 % of control

CN(C)Nc1ncnc2nc[nH]c12
inactive: dose: 12.5 mg/kg/injection, schedule: Q01DX Z (ip), vehicle: carboxymethylcellulose (CMC) 98 % of control | dose: 25.0 mg/kg/injection, schedule: Q01DX Z (ip), vehicle: carboxymethylcellulose (CMC) 104 % of control | dose: 50.0 mg/kg/injection, schedule: Q01DX Z (ip), vehicle: carboxymethylcellulose (CMC) 106 % of control and 115 % of control | dose: 75.0 mg/kg/injection, schedule: Q01DX001 (ip), vehicle: carboxymethylcellulose (CMC) 102 % of control | dose: 100.0 mg/kg/injection, schedule: Q01DX Z (ip), vehicle: carboxymethylcellulose (CMC) 114 % of control and 118 % of control | dose: 150.0 mg/kg/injection, schedule: Q01DX001 (ip), vehicle: carboxymethylcellulose (CMC) 102 % of control | dose: 300.0 mg/kg/injection, schedule: Q01DX001 (ip), vehicle: carboxymethylcellulose (CMC) 110 % of control

COc1cc2c(cc1O)C(=O)CCC2
inactive: [3] 107 % of control | [4] 96 % of control | [5] 93 % of control

Cc1ccc(-n2c(O)c(N=Nc3ccccc3C)c(=O)n(-c3ccc(I)cc3)c2=S)cc1
inactive: dose: 37.5 mg/kg/injection, schedule: Q01DX001 (ip), vehicle: Klucel (hydroxypropylcellulose) (HPC) 101 % of control | dose: 75.0 mg/kg/injection, schedule: Q01DX001 (ip), vehicle: Klucel (hydroxypropylcellulose) (HPC) 108 % of control | dose: 150.0 mg/kg/injection, schedule: Q01DX001 (ip), vehicle: Klucel (hydroxypropylcellulose) (HPC) 92 % of control

CCOc1ccc(N2C(=O)CC(Sc3ccccc3N)C2=O)cc1 (stereo not drawn)
inactive: [6] 89 % of control | [7] 90 % of control | [8] 88 % of control

CCCCCC(C)O[Si](C)C1(C)CCCCC1 (stereo not drawn)
inactive: [6] 94 % of control | [7] 94 % of control | [8] 104 % of control

Brc1cscc1-c1c2ccccc2cc2ccccc12
inactive: [3] 106 % of control | [4] 98 % of control | [5] 98 % of control

CCCCCCC1CCCCN1 (stereo not drawn)
inactive: dose: 5.0 mg/kg/injection, schedule: Q01DX001 (ip), vehicle: saline 104 % of control | dose: 10.0 mg/kg/injection, schedule: Q01DX001 (ip), vehicle: saline 96 % of control | dose: 12.5 mg/kg/injection, schedule: Q04DX003 (ip), vehicle: saline with Tween-80 103 % of control | dose: 20.0 mg/kg/injection, schedule: Q01DX001 (ip), vehicle: saline 98 % of control | [9] 98 % of control | dose: 40.0 mg/kg/injection, schedule: Q01DX001 (ip), vehicle: saline 96 % of control | [10] 103 % of control

C/C=C(\CC)C1(C(C)C)C(=O)NC(=O)NC1=O
inactive: dose: 75.0 mg/kg/injection, schedule: Q01DX001 (ip), vehicle: saline 91 % of control

CC12CCC3C(CCC4CCCCC43C)C1CCC2CO (stereo not drawn)
inactive: dose: 100.0 mg/kg/injection, schedule: Q04DX002 (ip), vehicle: DMSO 101 % of control | dose: 200.0 mg/kg/injection, schedule: Q04DX002 (ip), vehicle: DMSO 99 % of control | dose: 400.0 mg/kg/injection, schedule: Q04DX002 (ip), vehicle: DMSO 89 % of control

CCCCOC(=O)c1ccc(NC(=O)Nc2ccccc2)cc1
inactive: [9] 101 % of control | [10] 93 % of control | [6] 93 % of control and 97 % of control

CC(=O)OCCn1c2ccccc2c2c(C)c3cnccc3c(C)c21
active: dose: 150.0 mg/kg/injection, schedule: Q04DX003 (ip), vehicle: saline 154 % of control | dose: 300.0 mg/kg/injection, schedule: Q04DX003 (ip), vehicle: saline 290 % of control
inactive: dose: 37.5 mg/kg/injection, schedule: Q04DX003 (ip), vehicle: saline 115 % of control | [7] 108 % of control | dose: 300.0 mg/kg/injection, schedule: Q04DX003 (ip), vehicle: saline with Tween-80 102 % of control

CN(C)CC1C(O)C2CCN1CC2 (stereo not drawn)
inactive: [11] 103 % of control | [12] 103 % of control

CCOC(=O)C1OC12CCCCC2 (stereo not drawn)
inactive: dose: 100.0 mg/kg/injection, schedule: Q01DX009 (ip), vehicle: Klucel (hydroxypropylcellulose) (HPC) 100 % of control | [11] 92 % of control | dose: 200.0 mg/kg/injection, schedule: Q01DX009 (ip), vehicle: Klucel (hydroxypropylcellulose) (HPC) 92 % of control | [12] 96 % of control | dose: 400.0 mg/kg/injection, schedule: Q01DX009 (ip), vehicle: Klucel (hydroxypropylcellulose) (HPC) 100 % of control | [13] 89 % of control

O=C(O/N=C1\C2CCC(C2)C1Cl)c1ccc([N+](=O)[O-])cc1 (stereo not drawn)
inactive: dose: 25.0 mg/kg/injection, schedule: Q01DX009 (ip), vehicle: saline with Tween-80 94 % of control | [3] 88 % of control | dose: 100.0 mg/kg/injection, schedule: Q04DX003 (ip), vehicle: Klucel (hydroxypropylcellulose) (HPC) 102 % of control

CC1(C)C(=NNc2ccc([N+](=O)[O-])cc2[N+](=O)[O-])C(C)(C)C1(Cl)Cl
inactive: dose: 50.0 mg/kg/injection, schedule: Q04DX002 (ip), vehicle: Klucel (hydroxypropylcellulose) (HPC) 97 % of control | dose: 100.0 mg/kg/injection, schedule: Q04DX002 (ip), vehicle: Klucel (hydroxypropylcellulose) (HPC) 118 % of control | dose: 200.0 mg/kg/injection, schedule: Q04DX002 (ip), vehicle: Klucel (hydroxypropylcellulose) (HPC) 105 % of control

C=CC(C)(O)CCC1C(=C)C(O)CC2C(C)(C)CCCC12C (stereo not drawn)
inactive: [1] 100 % of control | [11] 105 % of control | [2] 100 % of control | [12] 95 % of control | dose: 400.0 mg/kg/injection, schedule: Q01DX009 (ip), vehicle: saline 94 % of control | [13] 90 % of control

CN(C=O)c1cc([N+](=O)[O-])ccc1OCc1ccccc1
inactive: dose: 50.0 mg/kg/injection, schedule: Q01DX001 (ip), vehicle: saline 100 % of control | dose: 100.0 mg/kg/injection, schedule: Q01DX001 (ip), vehicle: saline 96 % of control | dose: 200.0 mg/kg/injection, schedule: Q01DX001 (ip), vehicle: saline 92 % of control | dose: 400.0 mg/kg/injection, schedule: Q01DX001 (ip), vehicle: saline 94 % of control

CCCC(O)Cc1c[nH]c(=O)[nH]c1=O (stereo not drawn)
inactive: [3] 103 % of control | [4] 98 % of control | [6] 95 % of control | [7] 98 % of control

Brc1cnc[nH]1
inactive: dose: 25.0 mg/kg/injection, schedule: Q01DX009 (ip), vehicle: water 97 % of control | dose: 50.0 mg/kg/injection, schedule: Q01DX009 (ip), vehicle: water 90 % of control | dose: 100.0 mg/kg/injection, schedule: Q01DX009 (ip), vehicle: water 102 % of control | dose: 100.0 mg/kg/injection, schedule: Q04DX002 (ip), vehicle: saline 100 % of control | dose: 200.0 mg/kg/injection, schedule: Q04DX002 (ip), vehicle: saline 95 % of control | dose: 400.0 mg/kg/injection, schedule: Q01DX009 (ip), vehicle: water 98 % of control | dose: 400.0 mg/kg/injection, schedule: Q04DX002 (ip), vehicle: saline 92 % of control

CCOC(=O)c1ccc(NC(C)=O)o1
inactive: dose: 10.0 mg/kg/injection, schedule: Q01DX001 (ip), vehicle: carboxymethylcellulose (CMC) 107 % of control | dose: 20.0 mg/kg/injection, schedule: Q01DX001 (ip), vehicle: carboxymethylcellulose (CMC) 95 % of control | dose: 40.0 mg/kg/injection, schedule: Q01DX001 (ip), vehicle: carboxymethylcellulose (CMC) 103 % of control | dose: 80.0 mg/kg/injection, schedule: Q01DX001 (ip), vehicle: carboxymethylcellulose (CMC) 92 % of control

CCOC(=O)CC(=O)NC(C)(CCOCc1ccccc1)C(=O)OCC (stereo not drawn)
inactive: dose: 50.0 mg/kg/injection, schedule: Q01DX001 (ip), vehicle: carboxymethylcellulose (CMC) 101 % of control | dose: 100.0 mg/kg/injection, schedule: Q01DX001 (ip), vehicle: carboxymethylcellulose (CMC) 103 % of control | dose: 200.0 mg/kg/injection, schedule: Q01DX001 (ip), vehicle: carboxymethylcellulose (CMC) 110 % of control | dose: 400.0 mg/kg/injection, schedule: Q01DX001 (ip), vehicle: carboxymethylcellulose (CMC) 103 % of control

— PubChem BioAssay AID248 (DTP/NCI, 2004)
